Assay results: ChEMBL document CHEMBL3875228, “Rational Design of a Boron-Modified Triphenylethylene (GLL398) as an Oral Selective Estrogen Receptor Downregulator” (ACS Med Chem Lett, 2017)

What was measured:
[1] = AUC in Sprague-Dawley rat at 10 mg/kg, po administered via gavage measured at 1 to 24 hrs post administration by HPLC-MS/MS analysis; assay type: ADME, organism-based; settings: in vivo
[2] = Cmax in Sprague-Dawley rat at 10 mg/kg, po administered via gavage measured at 1 to 24 hrs post administration by HPLC-MS/MS analysis; assay type: ADME, organism-based; set-up: dose 10 mg/kg, route oral; settings: in vivo
[3] = Cmax in Sprague-Dawley rat assessed as GW7604 at 10 mg/kg, po administered via gavage measured at 1 to 24 hrs post administration by HPLC-MS/MS analysis; assay type: ADME, organism-based; set-up: dose 10 mg/kg, route oral; settings: in vivo
[4] = Half life in Sprague-Dawley rat assessed as GW7604 at 10 mg/kg, po administered via gavage measured at 1 to 24 hrs post administration by HPLC-MS/MS analysis; assay type: ADME, organism-based; settings: in vivo
[5] = Half life in Sprague-Dawley rat at 10 mg/kg, po administered via gavage measured at 1 to 24 hrs post administration by HPLC-MS/MS analysis; assay type: ADME, organism-based; settings: in vivo
[6] = AUC in Sprague-Dawley rat assessed as GW7604 at 10 mg/kg, po administered via gavage measured at 1 to 24 hrs post administration by HPLC-MS/MS analysis; assay type: ADME, organism-based; settings: in vivo
cells [7] = settings: Homo sapiens, MCF7, 120 h
Description: Cytotoxicity against human MCF7 cells assessed as reduction in cell viability after 5 days by Coulter counting method

cells [8] = settings: Homo sapiens, MCF7, 120 h; remark: listed apart in the source
Description: Cytotoxicity against tamoxifen-resistant human MCF7 cells assessed as reduction in cell viability after 5 days by Coulter counting method

[9] = Tmax in Sprague-Dawley rat at 10 mg/kg, po administered via gavage measured at 1 to 24 hrs post administration by HPLC-MS/MS analysis; assay type: ADME, organism-based; settings: in vivo
Estrogen receptor [10] = target: T1, Estrogen receptor (Homo sapiens, UniProt P03372); test: biochemical
T1 sequence (P03372 whole entry): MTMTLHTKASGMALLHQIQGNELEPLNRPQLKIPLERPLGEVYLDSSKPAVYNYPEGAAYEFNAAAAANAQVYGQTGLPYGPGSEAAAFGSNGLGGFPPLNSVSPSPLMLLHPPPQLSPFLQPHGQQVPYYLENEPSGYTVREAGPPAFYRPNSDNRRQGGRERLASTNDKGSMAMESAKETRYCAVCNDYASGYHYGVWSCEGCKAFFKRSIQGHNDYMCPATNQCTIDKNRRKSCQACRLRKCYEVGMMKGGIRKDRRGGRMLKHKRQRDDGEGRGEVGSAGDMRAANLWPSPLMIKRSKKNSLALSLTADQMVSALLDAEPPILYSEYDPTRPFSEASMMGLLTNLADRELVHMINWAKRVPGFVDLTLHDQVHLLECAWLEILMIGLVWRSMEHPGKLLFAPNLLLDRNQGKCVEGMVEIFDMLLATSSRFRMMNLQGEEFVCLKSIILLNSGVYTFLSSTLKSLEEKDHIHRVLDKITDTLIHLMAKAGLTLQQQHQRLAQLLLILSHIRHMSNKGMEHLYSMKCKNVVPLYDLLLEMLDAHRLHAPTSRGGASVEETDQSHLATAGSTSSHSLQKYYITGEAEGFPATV
Description: Displacement of fluormone-labeled ES2 from recombinant full length human ERalpha ligand binding domain expressed in insect cells after 2 hrs by TR-FRET assay

Estrogen receptor [11] = target: T1, Estrogen receptor; test: Downregulation of ERalpha in human MCF7 cells after 4 hrs by Western blot analysis; assay type: cell-based

Compound | AUC [1] | Cmax [2] | Cmax [3] | t1/2 [4] | half-life [5] | AUC [6] | IC50 (cells [7]) | IC50 (cells [8]) | Tmax [9] | IC50 (Estrogen receptor [10]) | IC50 (Estrogen receptor [11])
CC/C(=C(\c1ccccc1)c1ccc(/C=C/C(=O)O)cc1)c1ccc(O)cc1 | 3350 ng·h/mL | 270 ng/mL | 560 ng/mL | 4.5 h | 7 h | 8670 ng·h/mL | 1900 nM | 1000 nM | 3 h | – | –
CCC(=C(c1ccc(/C=C/C(=O)O)cc1)c1ccc(B(O)O)cc1)c1ccccc1 | 36900 ng·h/mL | 3510 ng/mL | – | – | 3.9 h | – | 1800 nM | 1200 nM | 1 h | 1.14 nM | 210 nM
CC/C(=C(\c1ccc(O)cc1)c1ccc(OCCN(C)C)cc1)c1ccccc1 [AFIMOXIFENE] | – | – | – | – | – | – | 3.4 nM | 20000 nM | – | – | –
